Source: patent US20150105252A1, “SUBSTITUTED PYRAZOLES AS HERBICIDES” (E I DU PONT DE NEMOURS AND COMPANY, priority 2013, published 2015)

Experiments:
corn [1] = assay: Test C postemergence; format: in vivo, Zea mays; details: for Plant response rating (scale of 0 to 100 where 0 is no effect and 100 is complete control), Corn: Postemergence, 31 g ai/ha, visually evaluated after 13 to 15 days; for Corn plant response rating / Plant response rating, Corn: postemergence; for Corn plant response rating: 62 g ai/ha, scale 0 to 100
Outline: (§1)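 In this greenhouse assay, seeded soil (loam plus sand) or emerged seedlings in peat-vermiculite medium were treated with formulated compound. Roughly two weeks later (13–15 days), each species was scored visually relative to controls, from 0 for no effect to 100 for complete control.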

wheat = assay: Test C postemergence; format: in vivo, Triticum aestivum; details: for Plant response rating (scale of 0 to 100 where 0 is no effect and 100 is complete control), Wheat: Postemergence, 31 g ai/ha, visually evaluated after 13 to 15 days; for Wheat plant response rating / Plant response rating, Wheat: postemergence; for Wheat plant response rating: 62 g ai/ha, scale 0 to 100
Outline: as §1

pigweed = assay: Test C preemergence; format: in vivo, Amaranthus retroflexus; details: for Pigweed plant response rating / Plant response rating, Pigweed: preemergence; for Plant response rating, Pigweed: 125 g ai/ha, scale 0 to 100, 0 = no effect, 100 = complete control
Outline: as §1

ragweed [2] = assay: Test C preemergence; format: in vivo, Ambrosia elation; details: for Ragweed plant response rating / Plant response rating, Ragweed: preemergence; for Plant response rating, Ragweed: 125 g ai/ha, scale 0 to 100, 0 = no effect, 100 = complete control
Outline: as §1

oilseed rape = assay: Test C preemergence; format: in vivo, Brassica napus; details: for Oilseed Rape plant response rating / Plant response rating, Oilseed Rape: preemergence; for Plant response rating, Oilseed Rape: 125 g ai/ha, scale 0 to 100, 0 = no effect, 100 = complete control
Outline: as §1

lambsquarters = assay: Test C postemergence; format: in vivo, Chenopodium album; details: for Plant response rating (scale of 0 to 100 where 0 is no effect and 100 is complete control), Lambsquarters: Postemergence, 31 g ai/ha, visually evaluated after 13 to 15 days; for Lambsquarters plant response rating / Plant response rating, Lambsquarters: postemergence; for Lambsquarters plant response rating: 62 g ai/ha, scale 0 to 100
Outline: as §1

velvetleaf = assay: Test C postemergence; format: in vivo, Abutilon theophrasti; details: for Plant response rating (scale of 0 to 100 where 0 is no effect and 100 is complete control), Velvetleaf: Postemergence, 31 g ai/ha, visually evaluated after 13 to 15 days; for Velvetleaf plant response rating / Plant response rating, Velvetleaf: postemergence; for Velvetleaf plant response rating: 62 g ai/ha, scale 0 to 100
Outline: as §1

waterhemp = assay: Test C postemergence; format: in vivo, Amaranthus rudis; details: for Plant response rating (scale of 0 to 100 where 0 is no effect and 100 is complete control), Waterhemp: Postemergence, 31 g ai/ha, visually evaluated after 13 to 15 days; for Waterhemp plant response rating / Plant response rating, Waterhemp: postemergence; for Waterhemp plant response rating: 62 g ai/ha, scale 0 to 100
Outline: as §1

ragweed [3] = assay: Test C postemergence; format: in vivo, Ambrosia elation; details: for Plant response rating (scale of 0 to 100 where 0 is no effect and 100 is complete control), Ragweed: Postemergence, 31 g ai/ha, visually evaluated after 13 to 15 days; for Ragweed plant response rating / Plant response rating, Ragweed: postemergence; for Ragweed plant response rating: 62 g ai/ha, scale 0 to 100
Outline: as §1

foxtail, giant = assay: Test A postemergence; format: in vivo, Setaria faberii
Outline: (§2)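 Visual injury rating, 0–100 (0 no effect, 100 complete control), vs untreated controls ~10 days after treatment in greenhouse. Pre: directed soil spray on seeded loam/sand. Post: 2–10 cm plants, 1–2 leaf stage. Formulation: non-phytotoxic solvent mix + surfactant.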

soybean [4] = assay: Test C preemergence; format: in vivo, Glycine max; details: for Soybean plant response rating / Plant response rating, Soybean: preemergence; for Plant response rating, Soybean: 125 g ai/ha, scale 0 to 100, 0 = no effect, 100 = complete control
Outline: as §1

corn [5] = assay: Test A postemergence; format: in vivo, Zea mays
Outline: as §2

soybean [6] = assay: Test C postemergence; format: in vivo, Glycine max; details: for Plant response rating (scale of 0 to 100 where 0 is no effect and 100 is complete control), Soybean: Postemergence, 31 g ai/ha, visually evaluated after 13 to 15 days; for Soybean plant response rating / Plant response rating, Soybean: postemergence; for Soybean plant response rating: 62 g ai/ha, scale 0 to 100
Outline: as §1

[7] = 250 g ai/ha, scale 0 to 100 (0 no effect, 100 complete control)
[8] = 125 g ai/ha, scale 0 to 100, 0 no effect, 100 complete control
[9] = 31 g ai/ha, visual rating, scale 0 to 100 (0 no effect, 100 complete control), 13 to 15 days
[10] = 62 g ai/ha, scale 0 to 100 (0 no effect, 100 complete control), 13 to 15 days
[11] = 250 g ai/ha, scale 0 to 100, 0 is no effect, 100 is complete control
[12] = Postemergence, 500 g ai/ha, 0 to 100 scale (0 no effect, 100 complete control)
[13] = postemergence, 125 g ai/ha, about 10 days, visual rating on 0 to 100 scale (0 no effect, 100 complete control)

CCCNC(=O)c1cc(OCC)n(Cc2ccnc(OC(F)F)c2)n1 [Compound 136]
Plant response rating (scale of 0 to 100 where 0 is no effect and 100 is complete control), Corn (corn [1]): 10
Corn plant response rating (corn [1]): 10
Plant response rating, Corn (corn [1]; [7]): 25
Plant response rating, Corn (corn [1]; [8]): 15
Plant response rating (scale of 0 to 100 where 0 is no effect and 100 is complete control), Wheat (wheat): 5
Wheat plant response rating (wheat): 5
Plant response rating, Wheat (wheat; [7]): 15
Plant response rating, Wheat (wheat; [8]): 10
Pigweed plant response rating (pigweed; [9]): 70
Pigweed plant response rating (pigweed; [10]): 70
Plant response rating, Pigweed (pigweed; 13 to 15 days): 60
Pigweed plant response rating (pigweed; [11]): 100
Ragweed plant response rating (ragweed [2]; [9]): 45
Ragweed plant response rating (ragweed [2]; [10]): 75
Plant response rating, Ragweed (ragweed [2]; 13 to 15 days): 75
Ragweed plant response rating (ragweed [2]; [11]): 98
Oilseed Rape plant response rating (oilseed rape; [9]): 100
Oilseed Rape plant response rating (oilseed rape; [10]): 100
Plant response rating, Oilseed Rape (oilseed rape; 13 to 15 days): 100
Oilseed Rape plant response rating (oilseed rape; [11]): 100
Plant response rating (scale of 0 to 100 where 0 is no effect and 100 is complete control), Lambsquarters (lambsquarters): 80
Lambsquarters plant response rating (lambsquarters): 85
Plant response rating, Lambsquarters (lambsquarters; [7]): 95
Plant response rating, Lambsquarters (lambsquarters; [8]): 98
Plant response rating (scale of 0 to 100 where 0 is no effect and 100 is complete control), Velvetleaf (velvetleaf): 30
Velvetleaf plant response rating (velvetleaf): 55
Plant response rating, Velvetleaf (velvetleaf; [7]): 85
Plant response rating, Velvetleaf (velvetleaf; [8]): 60
Plant response rating (scale of 0 to 100 where 0 is no effect and 100 is complete control), Waterhemp (waterhemp): 60
Waterhemp plant response rating (waterhemp): 70
Plant response rating, Waterhemp (waterhemp; [7]): 90
Plant response rating, Waterhemp (waterhemp; [8]): 75
Plant response rating (scale of 0 to 100 where 0 is no effect and 100 is complete control), Ragweed (ragweed [3]): 15
Ragweed plant response rating (ragweed [3]): 35
Plant response rating, Ragweed (ragweed [3]; [7]): 70
Plant response rating, Ragweed (ragweed [3]; [8]): 40
Foxtail, Giant plant response rating (foxtail, giant; [12]): 100
Foxtail, Giant plant response rating (foxtail, giant; [13]): 90
Soybean plant response rating (soybean [4]; [9]): 45
Soybean plant response rating (soybean [4]; [10]): 75
Plant response rating, Soybean (soybean [4]; 13 to 15 days): 95
Soybean plant response rating (soybean [4]; [11]): 100
Corn plant response rating (corn [5]; [12]): 100
Corn plant response rating (corn [5]; [13]): 60
Plant response rating (scale of 0 to 100 where 0 is no effect and 100 is complete control), Soybean (soybean [6]): 90
Soybean plant response rating (soybean [6]): 70
Plant response rating, Soybean (soybean [6]; [7]): 95
Plant response rating, Soybean (soybean [6]; [8]): 95

CCCc1cc(C(=O)NCC(F)(F)F)nn1Cc1ccnc(OC(F)F)c1 [Compound 127]
Plant response rating (scale of 0 to 100 where 0 is no effect and 100 is complete control), Corn (corn [1]): 5
Corn plant response rating (corn [1]): 5
Plant response rating, Corn (corn [1]; [7]): 25
Plant response rating, Corn (corn [1]; [8]): 10
Plant response rating (scale of 0 to 100 where 0 is no effect and 100 is complete control), Wheat (wheat): 5
Wheat plant response rating (wheat): 5
Plant response rating, Wheat (wheat; [7]): 10
Plant response rating, Wheat (wheat; [8]): 5
Plant response rating (scale of 0 to 100), Pigweed (pigweed; Preemergence, 250 g ai/ha): 100
Pigweed plant response rating (pigweed; [9]): 100
Pigweed plant response rating (pigweed; [10]): 100
Plant response rating, Pigweed (pigweed; 13 to 15 days): 100
Plant response rating (scale of 0 to 100), Ragweed (ragweed [2]; Preemergence, 250 g ai/ha): 90
Ragweed plant response rating (ragweed [2]; [9]): 15
Ragweed plant response rating (ragweed [2]; [10]): 25
Plant response rating, Ragweed (ragweed [2]; 13 to 15 days): 60
Plant response rating (scale of 0 to 100), Oilseed Rape (oilseed rape; Preemergence, 250 g ai/ha): 100
Oilseed Rape plant response rating (oilseed rape; [9]): 85
Oilseed Rape plant response rating (oilseed rape; [10]): 100
Plant response rating, Oilseed Rape (oilseed rape; 13 to 15 days): 100
Plant response rating (scale of 0 to 100 where 0 is no effect and 100 is complete control), Lambsquarters (lambsquarters): 65
Lambsquarters plant response rating (lambsquarters): 80
Plant response rating, Lambsquarters (lambsquarters; [7]): 85
Plant response rating, Lambsquarters (lambsquarters; [8]): 85
Plant response rating (scale of 0 to 100 where 0 is no effect and 100 is complete control), Velvetleaf (velvetleaf): 10
Velvetleaf plant response rating (velvetleaf): 15
Plant response rating, Velvetleaf (velvetleaf; [7]): 70
Plant response rating, Velvetleaf (velvetleaf; [8]): 45
Plant response rating (scale of 0 to 100 where 0 is no effect and 100 is complete control), Waterhemp (waterhemp): 50
Waterhemp plant response rating (waterhemp): 65
Plant response rating, Waterhemp (waterhemp; [7]): 70
Plant response rating, Waterhemp (waterhemp; [8]): 70
Plant response rating (scale of 0 to 100 where 0 is no effect and 100 is complete control), Ragweed (ragweed [3]): 30
Ragweed plant response rating (ragweed [3]): 20
Plant response rating, Ragweed (ragweed [3]; [7]): 60
Plant response rating, Ragweed (ragweed [3]; [8]): 50
Foxtail, Giant plant response rating (foxtail, giant; [12]): 90
Foxtail, Giant plant response rating (foxtail, giant; [13]): 90
Plant response rating (scale of 0 to 100), Soybean (soybean [4]; Preemergence, 250 g ai/ha): 85
Soybean plant response rating (soybean [4]; [9]): 30
Soybean plant response rating (soybean [4]; [10]): 45
Plant response rating, Soybean (soybean [4]; 13 to 15 days): 65
Corn plant response rating (corn [5]; [12]): 90
Corn plant response rating (corn [5]; [13]): 90
Plant response rating (scale of 0 to 100 where 0 is no effect and 100 is complete control), Soybean (soybean [6]): 40
Soybean plant response rating (soybean [6]): 65
Plant response rating, Soybean (soybean [6]; [7]): 85
Plant response rating, Soybean (soybean [6]; [8]): 70
